Test results as given in patent US20250170158A1, “METHODS OF TREATING MEDICAL CONDITIONS USING CENSAVUDINE OR A RELATED COMPOUND” (ROME Therapeutics, Inc., priority 2022, published 2025).
“Also recorded” adds a separate entry of the source.

Legend:
[1] = biological target: T1, HERV-K reverse transcriptase (Homo sapiens, UniProt V9H0F6); experiment: Homogeneous time-resolved fluorescence (HTRF) HERV-K RT assay; assay type: biochemical; conditions: HERV-K reverse transcriptase (2-596)-8His protein, read-out: IC50, inhibition of HERV-K reverse transcriptase
T1 construct: fused on or other part: C-terminal 8His tag
Protocol: The HERV-K reverse transcriptase homogeneous time-resolved fluorescence (HTRF) assay was performed in a 384-well format with HERV-K reverse transcriptase (2-596)-8His protein. Baculoviruses were created using Bac-to-Bac technology (Invitrogen). pFastBac donor plasmids containing HERV-K reverse transcriptase sequence (NCBI GenBank number AAC63291.1, J. Virology (1999) Vol. 73, No. 3, pp. 2365-2375) were transformed into DH10 Bac cells following the manufacturer's instructions. Recombinant bacmids were then isolated clonally and transfected into SF9 cells with lipofectin. HERV-K reverse transcriptase was expressed in the SF9 insect cells and then purified using immobilized metal affinity chromatography (IMAC) followed by size-exclusion chromatography (SEC). Test compound was serially diluted in DMSO and further diluted in the assay buffer (50 mM Tris-HCl, 50 mM KCl, 10 mM MgCl2, 10 mM DTT, pH 8.1) to achieve a final DMSO concentration of 1%. […] At the end of the incubation, fluorescence was read at ex/em=337/485 nm and ex/em=337/520 nm on an Envision 2104 plate reader (Perkin Elmer). The fluorescence ratio at 520/485 nm was used for the calculation. […] The IC50 was calculated by fitting the compound dose inhibition curve with a 4-parameter non-linear regression equation.

[2] = biological target: T2, LINE1 reverse transcriptase (Homo sapiens, UniProt O00370); experiment: Homogeneous time-resolved fluorescence (HTRF) LINE1 RT assay; assay type: biochemical; parameters: recombinant MBP-tagged LINE1 protein (238-1061); MBP; made in house; conditions: recombinant MBP-tagged LINE1 protein (238-1061), read-out: IC50, inhibition of LINE1 reverse transcriptase
Protocol: The LINE1 reverse transcriptase homogeneous time-resolved fluorescence (HTRF) assay was performed with recombinant MBP-tagged LINE1 protein (238-1061) (generated and purified according to procedures in Dai L. et al. BMC Biochemistry 2011; 12:18) in a 384-well format. Test compound was serially diluted in DMSO and further diluted in the assay buffer (50 mM Tris-HCl, 50 mM KCl, 10 mM MgCl2, 10 mM DTT, pH 8.1) to achieve a final DMSO concentration of 1%. The serially diluted compound was mixed with 64 ng/well of LINE1 enzyme, 5 nM of pre-annealed template/biotin-primer pair (synthesized at Generay Biotechnology), 10 nM of Fluorescein-12-dATP fluorescent probe (Perkin Elmer), and 1 μM dGTP/dCTP/dTTP (Thermo Fisher Scientific) in the assay buffer. The template/biotin-primer sequences were as follows:
After incubating at 25° C. for 60 minutes, the detection reagent (20 mM EDTA with streptavidin-terbium cryptate, Cisbio Bioassay) in the PPI buffer (Cisbio Bioassay) was added, and the mixture was incubated at 25° C. for 30 minutes. At the end of the incubation, fluorescence was read at ex/em=337/485 nm and ex/em=337/520 nm on an Envision 2104 plate reader (Perkin Elmer). The fluorescence ratio at 520/485 nm was used for the calculation. […] The IC50 was calculated by fitting the compound dose inhibition curve with a 4-parameter non-linear regression equation.

[3] = biological target: T2, LINE1 reverse transcriptase; experiment: Transient artificial-intron Cis LINE1 reporter assay; assay type: cell-based; parameters: expressed in transfected cells; conditions: HEK 293 cells; ratio of FLuc to RLuc reports LINE1 activity; read-out: IC50, inhibition of FLuc (FF/RR)
Protocol: Intron-disrupted Firefly luciferase (FLuc) expression cassettes were generated as described by Xie, Y. et al. “Characterization of L1 retrotransposition with high-throughput dual-luciferase assays,” Nucleic Acid Res. (2011) Vol. 39, No. 3, e16. In addition, the plasmid contained an intact Renilla luciferase (RLuc) expression cassette on the vector backbone, in order to normalize transfection efficiency and measure potential cell toxicity.
HEK 293 cells were seeded in 96-well plates at 1,000 cells/well in 55 μL and grown for 24 hours. Cells were transfected with FuGeneHD (Promega) following the manufacturer's protocol. Each well received 0.133 ng plasmid, 0.4 μL FuGeneHD reagent, and 4.5 μL GlutaMAX-I-supplemented Opti-MEM I reduced-serum medium (Invitrogen). Cells were simultaneously treated with test compound serially diluted starting at 100 μM in a 3-fold dilution dose response.
Luminescence was measured using the Dual-Glo Luciferase Assay System (Promega) following the manufacturer's instructions. The ratio between FLuc and RLuc gene expression was used to report LINE1 activity.

[4] = biological target: T2, LINE1 reverse transcriptase; experiment: Stable artificial-intron Cis LINE1 reporter assay; assay type: cell-based; parameters: expressed in transfected cells; conditions: HeLa L1 artificial-intron reporter cells, doxycycline induced, 72 h, Firefly luciferase; read-out: IC50, inhibition of LINE1 reverse transcriptase
Source text: A stable HeLa Tet-On 3G (Takara, cat no 631183) cell line expressing a bi-directional inducible LINE1 construct was generated as described in Xie, Y. et al. “Cell division promotes efficient retrotransposition in a stable L1 reporter cell line,” Mobile DNA (2013) 4:10. Single cell clones were screened for high Luciferase expression and the highest expression Firefly expressing clone was chosen for compound testing.
Test compound was serially diluted in DMSO and spotted in 96-well plates. Subsequently the HeLa L1 artifical-intron reporter cells were plated into the compound-containing wells (8,000 cells/well), and the cells were induced for reporter expression with doxycycline (Sigma cat no D9891) at a final concentration of 500 ng/mL. Luminescence was measured 72 h after plating using the Dual-Glo Luciferase Assay System (Promega cat no E2940) following the manufacturer's instructions. The Firefly Luciferase activity was used to report LINE1 activity.

Type 1 Interferon = experiment: Cellular assay for inhibiting IFN production in THP1 TREX1 KO cells; assay type: cell-based; conditions: THP1-Dual KO-TREX1 cells, six days of treatment, alone or with 1 μM 5-Aza-2'-Deoxycytidine; FIG. 2
Protocol: THP1 Dual TREX1 KO cells were purchased from Invivogen.
Stock solution of censavudine was prepared in DMSO followed by a three-fold dilution in DMSO. Additional 50× dilution was prepared in cell culture media for each dilution. 10 μL of diluted censavudine was then added to a 96 well plate.
THP1-Dual™ KO-TREX1 cells were treated with either 1×PBS or 1 μM 5-Aza-2′-Deoxycytidine. 190 μL of the THP1-Dual™ KO-TREX1 cells from either treatment were added to each well of the 96-well plate containing censavudine titration at 50,000 cells/well. Cells were incubated at 37° C., 5% CO2 in a humidified incubator for six days. Cells treated with 1 μM 5-Aza-2′-Deoxycytidine were added at the same density as above and incubated at 37° C., 5% CO2 in a humidified incubator for six days. On day six, 25 μL of cell supernatant was transferred to a 96 well white-walled plate, followed by addition of 50 μL of QUANTI-LUC solution containing stabilizer to each well.

IL-17A, IFN, TNF = experiment: Mouse MOG study: lymph node cell culture and CBA cytokine analysis; assay type: in vivo, C57BL mice
Protocol: (§1) On day zero, four groups of six C57BL mice were immunized subcutaneously at 2 sites with 0.1 mL/site with MOG35-55/CFA (Hooke immunization kit). Dosing of mice started on day 0 and continued through day 11. The dosing schedule was:
(§2) The Vehicle used was 0.5% methylcellulose. Mice were dosed each day at approximately the same time each day. One day 11, 1 hour after receiving the last dose, plasma was collected, frozen and stored at −80° C. for analysis. At the end of the experiment, all mice were euthanized, and inguinal lymph nodes were collected and processed.
Lymph node cells from each group were set up in 96-well plates with 400k cells/well along with seven concentrations of antigen: 0, 0.07 μg/mL, 0.2 μg/mL, 0.7 μg/mL, 2.2 μg/mL, 6.6 μg/mL and 20.0 μg/mL. After 72 hours of culturing, the supernatants were collected and analyzed for IL-17A, IFN […] , and TNF using CBA kits (Becton-Dickinson).

CD4+ T cells = experiment: Mouse MOG study: BrdU cell proliferation assay on lymph node cells; assay type: in vivo, C57BL mice
Protocol: as §1, §2
A bromodeoxyuridine (BrdU) cell proliferation assay was run on some of the lymph node cells to determine if treatment of mice with censavudine altered the proliferation of CD4+ T cells in culture upon restimulation with antigen. Cultures of the cells were set up in 96-well plates, each using 400k cells/well along with six concentrations of antigen: 0, 0.2 μg/mL, 0.7 μg/mL, 2.2 μg/mL, 6.6 μg/mL and 20.0 μg/mL, each with duplicates. The cells were cultured for approximately 40 hours, then BrdU was added to all wells at a concentration of 3 μg/mL. The cells were cultured an additional 3 hours after the addition of BrdU. Cells were then collected, stained with anti-CD4 and anti-BrdU antibodies (as per Becton Dickinson's standard protocols for BrdU labeling) and analyzed.

T1 sequence (V9H0F6 entry or part of it): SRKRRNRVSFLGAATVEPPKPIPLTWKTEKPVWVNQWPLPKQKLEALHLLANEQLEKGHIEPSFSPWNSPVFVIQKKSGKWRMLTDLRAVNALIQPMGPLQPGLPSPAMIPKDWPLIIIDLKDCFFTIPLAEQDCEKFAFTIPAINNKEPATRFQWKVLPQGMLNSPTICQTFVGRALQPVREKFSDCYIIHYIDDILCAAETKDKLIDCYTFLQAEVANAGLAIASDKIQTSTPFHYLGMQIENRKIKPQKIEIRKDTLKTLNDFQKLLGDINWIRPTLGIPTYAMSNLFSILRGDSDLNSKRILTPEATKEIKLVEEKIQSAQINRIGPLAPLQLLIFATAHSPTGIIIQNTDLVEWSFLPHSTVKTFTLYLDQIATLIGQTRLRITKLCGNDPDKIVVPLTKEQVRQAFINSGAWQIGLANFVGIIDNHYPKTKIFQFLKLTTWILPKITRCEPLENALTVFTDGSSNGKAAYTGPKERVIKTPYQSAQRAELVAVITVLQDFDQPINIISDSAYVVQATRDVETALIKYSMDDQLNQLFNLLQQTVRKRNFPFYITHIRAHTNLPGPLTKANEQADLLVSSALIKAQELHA
Protocol for THP1-Dual KO-TREX1 cells: The THP1-Dual™ KO-TREX1 cells were cultured in RPMI 1640, 10% heat-inactivated fetal bovine serum, 25 mM HEPES, 10 μg/mL Blasticidin, and 100 μg/mL Zeocin. THP1-Dual™ KO-TREX1 cells were treated with a dose titration of censavudine alone or in the presence of 1 μM 5-Aza-2′-Deoxycytidine (Sigma, cat #189825). Type 1 Interferon and cell viability were assessed after six days of treatment.
The remaining cells were assessed for cell viability by adding 25 μL of CellTiter-Glo (Promega, G9683) solution to each well, placed on a shaker for 10 minutes at room temperature. Luminescence was detected on a plate reader, according to manufacturer's instructions.

## C#C[C@@]1(COP(=O)(O)OP(=O)(O)OP(=O)(O)O)C=C[C@H](n2cc(C)c(=O)[nH]c2=O)O1
[1]
  IC50: 6400 nM
[2]
  IC50: 70 nM

## C#C[C@@]1(CO)C=C[C@H](n2cc(C)c(=O)[nH]c2=O)O1 [drawing 16]
[3]
  IC50: 60 nM
[4]
  IC50: 130 nM

## C#C[C@@]1(CO)C=C[C@H](n2cc(C)c(=O)[nH]c2=O)O1 [censavudine, 1-[(2R,5R)-5-ethynyl-5-(hydroxymethyl)-2H-furan-2-yl]-5-methylpyrimidine-2,4-dione]
Type 1 Interferon
  interferon (Type 1 Interferon reporter): significant reduction of interferon; also recorded: inhibition of interferon
IL-17A, IFN, TNF; MOG35-55/CFA immunized mice, QD p.o. day 0-11, lymph node cells restimulated with antigen 72 h, FIG. 4A
  IL-17A level: reduce levels; also recorded: reduction of IL17A
IL-17A, IFN, TNF; MOG35-55/CFA immunized mice, QD p.o. day 0-11, lymph node cells restimulated with antigen 72 h, FIG. 4B
  TNF level: reduce levels; also recorded: reduction of TNF
IL-17A, IFN, TNF; MOG35-55/CFA immunized mice, QD p.o. day 0-11, lymph node cells restimulated with antigen 72 h, FIG. 4C
  IFN level: reduce levels; also recorded: reduction of IFN
IL-17A, IFN, TNF; all doses (8, 40, 200 mg/kg QD p.o.), FIGS. 4A-4C
  proinflammatory cytokines (IL17A, TNF, IFN), effect: some effect
IL-17A, IFN, TNF; doses of 40 mg/kg and 200 mg/kg, FIGS. 4A-4C
  proinflammatory cytokines (IL17A, TNF, IFN), response: best responses
CD4+ T cells; MOG immunized mice, QD p.o. day 0-11, lymph node cells restimulated with antigen, BrdU, FIG. 3A
  T cell proliferation: reduce levels; also recorded: reduction of T-cell proliferation
CD4+ T cells; MOG immunized mice, various doses QD p.o., FIG. 3B
  Th17 (T17): reduce levels; also recorded: reduction of the cytokine Th17
CD4+ T cells; MOG immunized mice, various doses QD p.o., FIG. 3C
  Th1 (T1): reduce levels; also recorded: reduction of the cytokine Th1
CD4+ T cells; doses between 40 mg/kg and 200 mg/kg, FIGS. 3A-3C
  autoreactive T-cell responses: significant reduction
THP1-Dual KO-TREX1 cells
  cell viability / cell death: does not lead to cell death
